Source: patent US20100016290A1, “AMORPHOUS POLYMORPH OF BAZEDOXIFENE ACETATE” (priority 2008, published 2010)

Experiments:
[1] = Form C on ATR-IR sensor in ethanol vapor atmosphere; assay type: physicochemical; conditions: room temperature
Excerpt: IR spectra (see, e.g. FIG. 2) were acquired by placing a few milligrams of the powder of the sample on a diamond sensor ATR (Attenuated Total Reflection) probe (Dicomp) using a React-IR 4000 system operated at 4 cm^−1 resolution and 128 scans between 650-4000 cm^−1.
Some experiments were executed by creating an ethanol vapor atmosphere around the ATR sensor at room temperature.

[2] = Mortar and pestle trials of Form A under mechanical stress (DSC, XRPD); assay type: physicochemical; conditions: for decrease in the Enthalpy of Fusion (Form A): after 10 min mixing in reaction solvent
Description: Mortar and pestle trials were conducted to test the behavior of polymorph Form A under mechanical stress and to test and measure the kinetics of conversion of crystalline Form A to Form B under mechanical stress (possibly via amorphous Form C).

polymorph form present ([1]; after two hours)	transformation of polymorph form ([1]; on ATR sensor)	decrease in the Enthalpy of Fusion (Form A) [2]	amorphous Form C formed under mechanical stress ([2]; confirmed by powder XRD (FIG. 5))	SMILES
only polymorph Form B was present	transform rapidly into polymorph Form B	–	–	Cc1c(-c2ccc(O)cc2)n(Cc2ccc(OCCN3CCCCCC3)cc2)c2ccc(O)cc12 [Form C, 1-[4-(2-azepan-1-yl-ethoxy)-benzyl]-2-(4-hydroxy-phenyl)-3-methyl-1H-indol-5-ol acetic acid]
–	–	About 30%	–	CC(=O)O.Cc1c(-c2ccc(O)cc2)n(Cc2ccc(OCCN3CCCCCC3)cc2)c2ccc(O)cc12 [Sample 7]
–	–	About 50%	significant amount of amorphous Form C	CC(=O)O.Cc1c(-c2ccc(O)cc2)n(Cc2ccc(OCCN3CCCCCC3)cc2)c2ccc(O)cc12 [Sample 8]
